ChEMBL document CHEMBL5050844 (2019)

Tests used:
[1] = Induction of anti-CD3 antibodies-stimulated human T cell activation at 1 uM assessed fold increase in IL-2 secretion measured by ELISA assay; assay type: functional, T cell line; further: reference of the scale not given here
[2] = Induction of anti-CD3/CD28 antibodies-stimulated human T cell activation at 0.3 uM assessed fold increase in IL-2 secretion measured by ELISA assay; assay type: functional, T cell line
[3] = Induction of anti-CD3/CD28 antibodies-stimulated human T cell activation at 0.3 uM assessed fold increase in CD25 expression measured by ELISA assay; assay type: functional, T cell line
[4] = Induction of anti-CD3 antibodies-stimulated human T cell activation at 1 uM assessed fold increase in CD25 expression measured by ELISA assay; assay type: functional, T cell line; further: reference of the scale not given here
[5] = Induction of anti-CD3/CD28 antibodies-stimulated human T cell activation at 1 uM assessed fold increase in IL-2 secretion measured by ELISA assay; assay type: functional, T cell line
[6] = target: T1, E3 ubiquitin-protein ligase CBL-B (Homo sapiens, UniProt Q13191); assay: Inhibition of N-terminal Avi-tagged human CBL-B (36 to 427 residues) incubated with 60 nM Src kinase for 1.5 hrs followed by incubation with fluorescently labeled UbcH5B-Ub for 1 hr and measured by TR-FRET assay; assay type: single protein
T1 sequence (Q13191 whole entry, the tested form may be a part): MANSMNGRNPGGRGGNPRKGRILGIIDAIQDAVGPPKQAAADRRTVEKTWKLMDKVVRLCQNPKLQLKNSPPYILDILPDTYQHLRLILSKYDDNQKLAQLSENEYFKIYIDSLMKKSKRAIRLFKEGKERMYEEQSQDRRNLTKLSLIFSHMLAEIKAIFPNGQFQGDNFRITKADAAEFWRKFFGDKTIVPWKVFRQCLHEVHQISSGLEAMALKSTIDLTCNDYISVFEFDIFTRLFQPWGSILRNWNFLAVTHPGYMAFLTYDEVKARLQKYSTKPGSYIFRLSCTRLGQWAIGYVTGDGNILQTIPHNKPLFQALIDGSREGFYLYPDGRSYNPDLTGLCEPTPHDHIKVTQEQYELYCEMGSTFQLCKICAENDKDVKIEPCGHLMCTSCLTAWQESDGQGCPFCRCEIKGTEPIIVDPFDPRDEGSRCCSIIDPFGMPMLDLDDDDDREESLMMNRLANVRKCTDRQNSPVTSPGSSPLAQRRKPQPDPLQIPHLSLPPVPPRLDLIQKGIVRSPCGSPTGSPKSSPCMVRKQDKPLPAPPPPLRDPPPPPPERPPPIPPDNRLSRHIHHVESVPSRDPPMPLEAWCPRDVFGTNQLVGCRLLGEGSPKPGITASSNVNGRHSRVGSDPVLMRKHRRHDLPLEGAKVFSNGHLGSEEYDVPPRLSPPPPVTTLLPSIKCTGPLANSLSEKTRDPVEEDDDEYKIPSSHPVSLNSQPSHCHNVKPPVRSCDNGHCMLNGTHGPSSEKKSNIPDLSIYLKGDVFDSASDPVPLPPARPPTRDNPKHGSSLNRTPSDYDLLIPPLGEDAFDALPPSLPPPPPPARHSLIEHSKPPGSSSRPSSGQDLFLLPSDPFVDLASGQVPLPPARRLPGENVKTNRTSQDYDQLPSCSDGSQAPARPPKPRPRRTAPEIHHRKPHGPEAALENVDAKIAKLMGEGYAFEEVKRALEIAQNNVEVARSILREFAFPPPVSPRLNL

[7] = target: T1, E3 ubiquitin-protein ligase CBL-B; assay: Binding affinity towards N-terminal biotinylated Avi-tagged human CBL-B (36 to 427 residues) measured by surface plasmon resonance assay
[8] = Induction of anti-CD3/CD28 antibodies-stimulated human T cell activation at 1 uM assessed fold increase in CD25 expression measured by ELISA assay; assay type: functional, T cell line
[9] = Induction of anti-CD3/CD28 antibodies-stimulated human T cell activation at 4 uM assessed fold increase in CD25 expression measured by ELISA assay; assay type: functional, T cell line
[10] = Induction of anti-CD3/CD28 antibodies-stimulated human T cell activation at 4 uM assessed fold increase in IL-2 secretion measured by ELISA assay; assay type: functional, T cell line
[11] = Induction of anti-CD3 antibodies-stimulated human T cell activation at 8 uM assessed fold increase in IL-2 secretion measured by ELISA assay; assay type: functional, T cell line; further: reference of the scale not given here
[12] = Induction of anti-CD3 antibodies-stimulated human T cell activation at 8 uM assessed fold increase in CD25 expression measured by ELISA assay; assay type: functional, T cell line; further: reference of the scale not given here

With `C[C@H](c1cc2c(c(C(F)(F)F)c1)CN(c1cccc(C3([C@@H](F)c4nncn4C)COC3)c1)C2=O)N1CCC2(CC2)C1` the “fold change (FC)” value [1] was “>=0.201”, the “fold change (FC)” value [2] was “>=7.5” and the “fold change (FC)” value [3] was “>=1.76”. The “fold change (FC)” value [4] was “>=1.001”, the “fold change (FC)” value [5] was “>=7.5” and the IC50 [6] was under 0.1 µM. For the same molecule, the Kd [7] was under 0.1 µM and the “fold change (FC)” value [8] was “>=1.76”.

In the case of `C[C@H](Sc1nncn1C)c1cccc(NC(=O)c2cc3cc(OCC(=O)O)ccc3cn2)c1`, the Kd [7] is reported as over 10 µM.

In the case of `C[C@H](Sc1nncn1C)c1cccc(NC(=O)c2cc(C(=O)N3CCC[C@H](O)C3)ccn2)c1`, the Kd [7] is reported as over 10 µM.

In the case of `C[C@H](Cc1nnco1)c1cccc(N2Cc3c(cccc3C(F)(F)F)C2=O)c1`, the Kd [7] is reported as over 10 µM.

In the case of `C[C@H](Sc1nncn1C)c1cccc(NC(=O)c2cc(C(=O)N3C[C@H](O)C[C@H]3C)ccn2)c1`, the Kd [7] is reported as over 10 µM.

`CC(c1cccc(N2Cc3c(cccc3C(F)(F)F)C2=O)c1)C(F)(F)c1nncn1C` (stereo unspecified) showed a Kd [7] of under 0.1 µM.

With `C[C@H](Cc1ncnn1C)c1cccc(N2Cc3c(cccc3C(F)(F)F)C2=O)c1` the Kd [7] was over 10 µM.

In the case of `CCn1cnnc1C[C@H](C)c1cccc(NC(=O)c2cc(S(C)(=O)=O)cc(C3CC3)n2)c1`, the IC50 [6] is reported as at least 3 µM and the Kd [7] is reported as at least 3 µM.

Work on `C=CCC(Sc1nncn1C)c1cccc(NC(=O)c2ccc3ccccc3n2)c1` (stereo unspecified) yielded a Kd [7] of over 10 µM.

In the case of `C[C@@H](Sc1nncn1C)c1cccc(NC(=O)c2cc(C(=O)N3CCC(O)C3)ccn2)c1` (single isomer, unassigned), the Kd [7] is reported as over 10 µM.

`C[C@@H](Sc1nncn1C)c1ccnc(N2Cc3c(cccc3C(F)(F)F)C2=O)c1` showed a Kd [7] of over 10 µM.

`C[C@H](Sc1nncn1C)c1ccnc(NC(=O)c2cc(C(F)(F)F)c(Cl)cn2)c1` gave a Kd [7] of over 10 µM.

With `CC1=CC(C(=O)Nc2cccc([C@H](C)Sc3nncn3C)c2)=NC(=O)C1` the IC50 [6] was at least 3 µM and the Kd [7] was over 10 µM.

With `C[C@H](Sc1nncn1C)c1cccc(NC(=O)c2cc(C(=O)N3C[C@@H](O)C[C@@H]3C)ccn2)c1` the Kd [7] was over 10 µM.

With `CC(Sc1nncn1C)c1ccc(F)c(NC(=O)c2ccc3ccccc3n2)c1` (stereo unspecified) the Kd [7] was over 10 µM.

With `C[C@H](Sc1nncn1C)c1cccc(NC(=O)c2cc(C(=O)N3CCCC3)ccn2)c1` the Kd [7] was over 10 µM.

Work on `C=CCC(Sc1nncn1C)c1cccc(NC(=O)c2cc3ccccc3cn2)c1` (stereo unspecified) yielded a Kd [7] of over 10 µM.

Molecule `C[C@H](Cc1nncn1C)c1cccc(N2Cc3c(cc(CN4CC[C@H](O)C4)cc3C(F)(F)F)C2=O)c1` has an IC50 [6] of under 0.1 µM and a Kd [7] of under 0.1 µM.

Molecule `C[C@@H](Sc1nncn1C)c1ccc(F)c(NC(=O)c2cccc(C(F)(F)F)n2)c1` has a Kd [7] of over 10 µM.

Molecule `C[C@H](Sc1nncn1C)c1cccc(NC(=O)c2cc(NS(=O)(=O)CCO)ccn2)c1` has a Kd [7] of over 10 µM.

Work on `C[C@H](Sc1nncn1C)c1cccc(NC(=O)c2cccc(C(F)(F)F)c2)c1` yielded a Kd [7] of over 10 µM.

For `C[C@H](Sc1nncn1C)c1cccc(NC(=O)c2cc(C3CC3)cc(C(F)(F)F)n2)c1`, the “fold change (FC)” value [1] was “<=0.05”, the “fold change (FC)” value [2] was 1.01 and the “fold change (FC)” value [3] was 1.01. For the same molecule, the “fold change (FC)” value [4] was 0.801, the “fold change (FC)” value [9] was 1.01 and the “fold change (FC)” value [5] was 1.01. For the same molecule, the “fold change (FC)” value [10] was 2.51, the IC50 [6] was under 0.1 µM and the “fold change (FC)” value [8] was 1.01. The “fold change (FC)” value [11] was 0.101 and the “fold change (FC)” value [12] was “>=1.001”.

Molecule `C[C@@H](Cc1nncn1C)c1ccnc(N2Cc3c(cccc3C(F)(F)F)C2=O)c1` has a Kd [7] of over 10 µM.

Work on `CC(O)C1CN(C(=O)c2ccnc(C(=O)Nc3cccc([C@H](C)Cc4nncn4C)c3)c2)C1` (stereo partly specified) yielded a Kd [7] of under 0.1 µM.

With `Cn1cnnc1CC1(c2cccc(N3Cc4c(cccc4C(F)(F)F)C3=O)c2)CC1` the “fold change (FC)” value [1] was 0.051, the “fold change (FC)” value [2] was 2.51 and the “fold change (FC)” value [3] was “<=1”. For the same molecule, the “fold change (FC)” value [4] was “>=1.001”, the “fold change (FC)” value [9] was 1.01 and the “fold change (FC)” value [5] was 2.51. For the same molecule, the “fold change (FC)” value [10] was 5, the IC50 [6] was under 0.1 µM and the “fold change (FC)” value [8] was 1.01. For the same molecule, the “fold change (FC)” value [11] was “>=0.201” and the “fold change (FC)” value [12] was “>=1.001”.

For `C[C@H](Cc1nncn1C)c1cccc(NC(=O)c2cc(O[C@@H]3CC[C@@H](O)C3)ccn2)c1` (relative stereo), the “fold change (FC)” value [1] was 0.051, the “fold change (FC)” value [2] was 2.51 and the “fold change (FC)” value [3] was 1.01. The “fold change (FC)” value [4] was 0.801, the “fold change (FC)” value [9] was 1.31 and the “fold change (FC)” value [5] was 2.51. For the same molecule, the “fold change (FC)” value [10] was 5, the IC50 [6] was under 0.1 µM and the “fold change (FC)” value [8] was 1.01. For the same molecule, the “fold change (FC)” value [11] was 0.101 and the “fold change (FC)” value [12] was “>=1.001”.

With `C[C@H](Cc1nncn1C)c1cccc(N2Cc3c(cc(C(=O)N4CC[C@H](O)C4)cc3C3CC3)C2=O)c1` the “fold change (FC)” value [1] was 0.051, the “fold change (FC)” value [2] was 1.01 and the “fold change (FC)” value [3] was 1.01. For the same molecule, the “fold change (FC)” value [4] was 0.801, the “fold change (FC)” value [9] was 1.31 and the “fold change (FC)” value [5] was 2.51. The “fold change (FC)” value [10] was 2.51, the IC50 [6] was under 0.1 µM and the “fold change (FC)” value [8] was 1.01. The “fold change (FC)” value [11] was 0.101 and the “fold change (FC)” value [12] was “>=1.001”.

For `C[C@H](Sc1nncn1C)c1cccc(NC(=O)c2ccc(F)c(C3CC3)n2)c1`, the “fold change (FC)” value [1] was “<=0.05”, the “fold change (FC)” value [2] was 1.01 and the “fold change (FC)” value [3] was “<=1”. The “fold change (FC)” value [4] was 0.601, the “fold change (FC)” value [9] was 1.01 and the “fold change (FC)” value [5] was 2.51. For the same molecule, the “fold change (FC)” value [10] was “>=7.5”, the IC50 [6] was under 0.1 µM and the “fold change (FC)” value [8] was “<=1”. The “fold change (FC)” value [11] was 0.101 and the “fold change (FC)” value [12] was “>=1.001”.

`C[C@H](Sc1nncn1C)c1cccc(NC(=O)c2cc(C(=O)N3CCC[C@@H](O)C3)ccn2)c1` gave a Kd [7] of over 10 µM.

`Cc1cnc(C(=O)Nc2cccc([C@H](C)Sc3nncn3C)c2)cc1C(F)(F)F` gave a Kd [7] of over 10 µM.

In the case of `COc1ccc(C(=O)Nc2cccc([C@H](C)Sc3nncn3C)c2)nc1C1CC1`, the “fold change (FC)” value [1] is reported as “<=0.05”, the “fold change (FC)” value [2] is reported as 1.01 and the “fold change (FC)” value [3] is reported as 1.01. For the same molecule, the “fold change (FC)” value [4] was 0.601, the “fold change (FC)” value [9] was 1.01 and the “fold change (FC)” value [5] was 1.01. The “fold change (FC)” value [10] was 2.51, the IC50 [6] was under 0.1 µM and the “fold change (FC)” value [8] was 1.01. For the same molecule, the “fold change (FC)” value [11] was 0.101 and the “fold change (FC)” value [12] was “>=1.001”.

Molecule `COc1c(C(=O)Nc2cccc([C@H](C)Sc3nncn3C)c2)cccc1C(F)(F)F` has a Kd [7] of over 10 µM.

Molecule `CC(C)c1cccc(C(=O)Nc2cccc([C@H](C)Sc3nncn3C)c2)c1` has a Kd [7] of over 10 µM.

With `Cn1cnnc1CC1(c2cccc(N3Cc4c(cc(CN5CC(C(=O)O)C5)cc4C(F)(F)F)C3=O)c2)COC1` the “fold change (FC)” value [1] was 0.151, the “fold change (FC)” value [2] was 1.01 and the “fold change (FC)” value [3] was 1.01. The “fold change (FC)” value [4] was 0.801, the “fold change (FC)” value [9] was 1.01 and the “fold change (FC)” value [5] was 1.01. The “fold change (FC)” value [10] was 1.01, the IC50 [6] was under 0.1 µM and the “fold change (FC)” value [8] was 1.01. For the same molecule, the “fold change (FC)” value [11] was “>=0.201” and the “fold change (FC)” value [12] was “>=1.001”.

With `C[C@H](Cc1nncn1C)c1cccc(NC(=O)c2nc3c(C(F)(F)F)cccc3[nH]2)c1` the “fold change (FC)” value [1] was “>=0.201”, the “fold change (FC)” value [2] was 2.51 and the “fold change (FC)” value [3] was 1.01. The “fold change (FC)” value [4] was “>=1.001”, the “fold change (FC)” value [9] was “>=1.76” and the “fold change (FC)” value [5] was 5. The “fold change (FC)” value [10] was “>=7.5”, the IC50 [6] was under 0.1 µM and the “fold change (FC)” value [8] was 1.51. The “fold change (FC)” value [11] was “>=0.201” and the “fold change (FC)” value [12] was “>=1.001”.

For `Cc1cc(C(=O)Nc2cccc(C3(Cc4nncn4C)COC3)c2)nc(C(F)(F)F)n1`, the “fold change (FC)” value [1] was 0.101, the “fold change (FC)” value [2] was 1.01 and the “fold change (FC)” value [3] was 1.01. The “fold change (FC)” value [4] was 0.801, the “fold change (FC)” value [9] was 1.01 and the “fold change (FC)” value [5] was 2.51. For the same molecule, the “fold change (FC)” value [10] was “>=7.5”, the IC50 [6] was under 0.1 µM and the “fold change (FC)” value [8] was 1.01. The “fold change (FC)” value [11] was “>=0.201” and the “fold change (FC)” value [12] was “>=1.001”.
